Results reported in ChEMBL document CHEMBL4184145, “Synthesis and structure-activity relationship of teixobactin analogues via convergent Ser ligation” (2017).
Converted amounts (≈) assume the structure as drawn.

Columns and labels:
Staphylococcus aureus [1] = experiment: Antibacterial activity against methicillin-susceptible Staphylococcus aureus ATCC 29213 by broth dilution assay; type: functional
Staphylococcus aureus [2] = experiment: Antibacterial activity against methicillin-resistant Staphylococcus aureus clinical isolate SA86 by broth dilution assay; type: functional

Row | SMILES | MIC (Staphylococcus aureus [1]) [µg/mL] | MIC (Staphylococcus aureus [2]) [µg/mL]
1 | CC[C@@H](C)[C@@H](NC(=O)[C@@H](CCC(N)=O)NC(=O)[C@H](CO)NC(=O)[C@@H](NC(=O)[C@@H](Cc1ccccc1)NC)[C@@H](C)CC)C(=O)N[C@H](C(=O)N[C@@H](CO)C(=O)N[C@H]1C(=O)N[C@@H](C)C(=O)N[C@@H](CCCN)C(=O)N[C@@H]([C@@H](C)CC)C(=O)O[C@H]1C)C(C)C | ≥ 32 | ≥ 32
2 | CC[C@@H](C)[C@@H](NC(=O)[C@@H](CCC(N)=O)NC(=O)[C@H](CO)NC(=O)[C@@H](NC(=O)[C@@H](Cc1ccccc1)NC)[C@@H](C)CC)C(=O)N[C@@H](Cc1ccccc1)C(=O)N[C@@H](CO)C(=O)N[C@H]1C(=O)N[C@@H](C)C(=O)N[C@@H](CCCN)C(=O)N[C@@H]([C@@H](C)CC)C(=O)O[C@H]1C | ≥ 32 | ≥ 32
3 | CC[C@@H](C)[C@@H](NC(=O)[C@@H](CCC(N)=O)NC(=O)[C@H](CO)NC(=O)[C@H](NC(=O)[C@@H](Cc1ccccc1)NC)[C@@H](C)CC)C(=O)N[C@H](C(=O)N[C@@H](CO)C(=O)N[C@H]1C(=O)N[C@@H](C)C(=O)N[C@@H](CCCN)C(=O)N[C@@H]([C@@H](C)CC)C(=O)O[C@H]1C)[C@@H](C)CC | ≥ 32 | ≥ 32
4 | CC[C@@H](C)[C@@H](NC(=O)[C@@H](CCC(N)=O)NC(=O)[C@H](CO)NC(=O)[C@@H](NC(=O)[C@@H](Cc1ccccc1)NC)[C@@H](C)CC)C(=O)N[C@H](C(=O)N[C@@H](CO)C(=O)N[C@H]1C(=O)NCC(=O)N[C@@H](CCCN)C(=O)N[C@@H]([C@@H](C)CC)C(=O)O[C@H]1C)[C@@H](C)CC | ≥ 32 | ≥ 32
5 | CC[C@@H](C)[C@@H](NC(=O)[C@@H](CCC(N)=O)NC(=O)[C@H](CO)NC(=O)[C@@H](NC(=O)[C@@H](Cc1ccccc1)NC)[C@@H](C)CC)C(=O)N[C@@H](CC(C)C)C(=O)N[C@@H](CO)C(=O)N[C@H]1C(=O)N[C@@H](C)C(=O)N[C@@H](CCCN)C(=O)N[C@@H]([C@@H](C)CC)C(=O)O[C@H]1C | ≥ 32 | ≥ 32
6 | CC[C@@H](C)[C@@H](NC(=O)[C@@H](CCC(N)=O)NC(=O)[C@H](CO)NC(=O)[C@H](C)NC(=O)[C@@H](Cc1ccccc1)NC)C(=O)N[C@H](C(=O)N[C@@H](CO)C(=O)N[C@H]1C(=O)N[C@@H](C)C(=O)N[C@@H](CCCN)C(=O)N[C@@H]([C@@H](C)CC)C(=O)O[C@H]1C)[C@@H](C)CC | ≥ 32 | ≥ 32
7 | CC[C@H](C)[C@H](NC(=O)[C@@H](C)NC(=O)[C@@H](CCC(N)=O)NC(=O)[C@H](CO)NC(=O)[C@@H](NC(=O)[C@@H](Cc1ccccc1)NC)[C@@H](C)CC)C(=O)N[C@@H](CO)C(=O)N[C@H]1C(=O)N[C@@H](C)C(=O)N[C@@H](CCCN)C(=O)N[C@@H]([C@@H](C)CC)C(=O)O[C@H]1C | ≥ 32 | ≥ 32
8 | CC[C@@H](C)[C@@H](NC(=O)[C@@H](CCC(N)=O)NC(=O)[C@H](CO)NC(=O)[C@@H](NC(=O)[C@@H](Cc1ccccc1)NC)[C@@H](C)CC)C(=O)N[C@H](C(=O)N[C@@H](CO)C(=O)N[C@H]1C(=O)N[C@@H](C)C(=O)N[C@@H](CCNC(=N)N)C(=O)N[C@@H]([C@@H](C)CC)C(=O)O[C@H]1C)[C@@H](C)CC | 8 to 16 (≈ 6.5 to 13 µM) | 16 (≈ 13 µM)
9 | CC[C@@H](C)[C@@H](NC(=O)[C@@H](CCC(N)=O)NC(=O)[C@H](CO)NC(=O)[C@@H](NC(=O)[C@@H](Cc1ccccc1)NC)[C@@H](C)CC)C(=O)N[C@H](C(=O)N[C@@H](CO)C(=O)N[C@H]1C(=O)N[C@@H](Cc2ccccc2)C(=O)N[C@@H](CCCN)C(=O)N[C@@H]([C@@H](C)CC)C(=O)O[C@H]1C)[C@@H](C)CC | ≥ 32 | ≥ 32
10 | CC[C@@H](C)[C@@H](NC(=O)[C@@H](CCC(N)=O)NC(=O)[C@H](CO)NC(=O)[C@@H](NC(=O)[C@H](Cc1ccccc1)NC)[C@@H](C)CC)C(=O)N[C@H](C(=O)N[C@@H](CO)C(=O)N[C@H]1C(=O)N[C@@H](C)C(=O)N[C@@H](CCCN)C(=O)N[C@@H]([C@@H](C)CC)C(=O)O[C@H]1C)[C@@H](C)CC | ≥ 32 | ≥ 32
11 | CC[C@@H](C)[C@@H](NC(=O)[C@@H](CCC(N)=O)NC(=O)[C@H](CO)NC(=O)[C@@H](NC(=O)[C@@H](Cc1ccccc1)NC)[C@@H](C)CC)C(=O)N[C@H](C(=O)N[C@@H](CO)C(=O)N[C@H]1C(=O)N[C@H](C)C(=O)N[C@@H](CCCN)C(=O)N[C@@H]([C@@H](C)CC)C(=O)O[C@H]1C)[C@@H](C)CC | ≥ 32 | ≥ 32
12 | CC[C@@H](C)[C@@H](NC(=O)[C@@H](CCC(N)=O)NC(=O)[C@H](CCCCN)NC(=O)[C@@H](NC(=O)[C@@H](Cc1ccccc1)NC)[C@@H](C)CC)C(=O)N[C@H](C(=O)N[C@@H](CO)C(=O)N[C@H]1C(=O)N[C@@H](C)C(=O)N[C@@H](CCCN)C(=O)N[C@@H]([C@@H](C)CC)C(=O)O[C@H]1C)[C@@H](C)CC | 4 (≈ 3.22 µM) | 8 (≈ 6.43 µM)
13 | CC[C@@H](C)[C@@H](NC(=O)[C@@H](CCC(N)=O)NC(=O)[C@H](CO)NC(=O)[C@@H](NC(=O)[C@@H](Cc1ccccc1)NC)[C@@H](C)CC)C(=O)N[C@H](C(=O)N[C@@H](CO)C(=O)N[C@H]1C(=O)N[C@@H](C)C(=O)N[C@@H](CCCN)C(=O)N[C@@H](CC(C)C)C(=O)O[C@H]1C)[C@@H](C)CC | ≥ 32 | ≥ 32
14 | CC[C@@H](C)[C@@H](NC(=O)[C@@H](CCC(N)=O)NC(=O)[C@H](CO)NC(=O)[C@@H](NC(=O)[C@@H](Cc1ccccc1)NC)[C@@H](C)CC)C(=O)N[C@H](C(=O)N[C@@H](CO)C(=O)N[C@H]1C(=O)N[C@@H](C)C(=O)N[C@@H](CCCN)C(=O)N[C@@H]([C@@H](C)CC)C(=O)O[C@H]1C)[C@@H](C)CC | 2 (≈ 1.66 µM) | 2 (≈ 1.66 µM)
15 | CC[C@@H](C)[C@@H](NC(=O)[C@@H](CCC(N)=O)NC(=O)[C@H](CO)NC(=O)[C@@H](NC(=O)[C@@H](Cc1ccccc1)NC)[C@@H](C)CC)C(=O)N[C@@H](C)C(=O)N[C@@H](CO)C(=O)N[C@H]1C(=O)N[C@@H](C)C(=O)N[C@@H](CCCN)C(=O)N[C@@H]([C@@H](C)CC)C(=O)O[C@H]1C | ≥ 32 | ≥ 32
16 | CC[C@@H](C)[C@@H](NC(=O)[C@@H](CCC(N)=O)NC(=O)[C@H](CO)NC(=O)[C@@H](NC(=O)[C@@H](Cc1ccccc1)NC)[C@@H](C)CC)C(=O)N[C@H](C(=O)N[C@@H](CO)C(=O)N[C@H]1C(=O)N[C@@H](C)C(=O)N[C@@H](CCCN)C(=O)N[C@@H](C(C)C)C(=O)O[C@H]1C)[C@@H](C)CC | 8 (≈ 6.73 µM) | 8 (≈ 6.73 µM)
17 | CC[C@@H](C)[C@@H](NC(=O)[C@@H](CCC(N)=O)NC(=O)[C@H](CO)NC(=O)[C@@H](NC(=O)[C@@H](C)NC)[C@@H](C)CC)C(=O)N[C@H](C(=O)N[C@@H](CO)C(=O)N[C@H]1C(=O)N[C@@H](C)C(=O)N[C@@H](CCCN)C(=O)N[C@@H]([C@@H](C)CC)C(=O)O[C@H]1C)[C@@H](C)CC | ≥ 32 | ≥ 32
18 | CC[C@@H](C)[C@@H](NC(=O)[C@@H](CCC(N)=O)NC(=O)[C@H](CO)NC(=O)[C@H](Cc1ccccc1)NC(=O)[C@@H](Cc1ccccc1)NC)C(=O)N[C@H](C(=O)N[C@@H](CO)C(=O)N[C@H]1C(=O)N[C@@H](C)C(=O)N[C@@H](CCCN)C(=O)N[C@@H]([C@@H](C)CC)C(=O)O[C@H]1C)[C@@H](C)CC | ≥ 32 | ≥ 32
19 | CC[C@@H](C)[C@@H](NC(=O)[C@@H](CCC(N)=O)NC(=O)[C@H](CO)NC(=O)[C@@H](NC(=O)[C@@H](Cc1ccccc1)NC)[C@@H](C)O)C(=O)N[C@H](C(=O)N[C@@H](CO)C(=O)N[C@H]1C(=O)N[C@@H](C)C(=O)N[C@@H](CCCN)C(=O)N[C@@H]([C@@H](C)CC)C(=O)O[C@H]1C)[C@@H](C)CC | ≥ 32 | ≥ 32
